In the METLIN SMRT retention time set (Domingo-Almenara et al. 2019):

Assay: gradient 5% acetonitrile 3 min, to 50% in 2 min, to 85% in 15 min, held 3 min, 100 µL/min
Details: column: Zorbax Extend-C18 2.1 x 50 mm; eluents: water / acetonitrile, 0.1% formic acid
Outline: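 The mobile phases were water and acetonitrile, each with 0.1% formic acid, pumped at 100 μL/min through a Zorbax Extend-C18 column (2.1 × 50 mm, 1.8 μm). Pure standards were injected as mixtures of ~100 molecules and detected by a quadrupole time-of-flight mass spectrometer in positive and negative ionization mode. Retention time came from computationally picked adduct peaks, each inspected by hand.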

RP-LC retention time | SMILES
621 s | COc1cccc(CNC(=O)c2ccc3ncnc(N4CCCC4)c3c2)c1
927 s | COc1ccc2c(c1OC)C(=O)N1N=C(c3ccc(-c4ccccc4)cc3)CC21 (stereo unspecified)
738 s | Cc1cccc(-c2ncccc2CNS(=O)(=O)c2cc(F)ccc2F)c1
833 s | CCOc1ccc2nc(Nc3ncc4c(n3)CC(c3ccc(F)cc3)CC4=O)nc(C)c2c1 (stereo unspecified)
906 s | O=C(Cn1c(=O)cc(-c2nc(C3CC3)no2)c2ccccc21)NCc1ccc2c(c1)OCO2
703 s | COc1cc(Nc2cc(C(=O)N3CCC(C)CC3)nc3ccc(C)cc23)cc(OC)c1OC
623 s | COc1ccc2[nH]c3c(c2c1)CCNC3c1ccc(F)cc1 (stereo unspecified)
642 s | Fc1cccc(-c2nc(-c3ccc4c(c3)ncn4CCN3CCOCC3)no2)c1
614 s | CCN(CC)CCCNC(=O)C1CCC(=O)N(c2ccc(OC)cc2)C1c1ccc(F)cc1 (stereo unspecified)
944 s | COc1ccccc1NC(=O)c1cnc2c(c1)c(=O)n(C)c(=O)n2-c1ccc(C)cc1
1030 s | CC(C)Cn1cnc2c(-c3ccc(F)cc3)csc2c1=O
982 s | Cc1ccc(-c2ncc(NC(=O)c3cccs3)cn2)cc1
690 s | CCc1nc2cc(-c3noc(C4(c5ccc(OC)cc5)CC4)n3)ccc2o1
905 s | COc1ccc(-c2ncc3c(n2)CCN(C(=O)Nc2ccccc2OC)C3)cc1
1400 s | Cc1c(-c2ccnc(N3CCCCC3)n2)cnc2nc(-c3ccc(Cl)cc3)nn12
1100 s | Cc1oc(-c2ccccc2)nc1Cn1ccn2nc(-c3ccc(F)cc3)cc2c1=O
781 s | CCOC(=O)c1cccc(NS(=O)(=O)c2cc(-c3c(C)noc3NC(C)=O)ccc2OC)c1
720 s | COc1cc([C@@H]2c3cc4c(cc3[C@H](O)[C@@H](CO)[C@@H]2C(=O)NCc2ccc(F)cc2)OCO4)cc(OC)c1OC
1280 s | Cc1ccc(-c2csc(Cc3nc(-c4ccc5c(c4)OCO5)no3)n2)cc1C
807 s | CCc1noc(NC(C)=O)c1-c1ccc(C)c(S(=O)(=O)NCc2ccc(OC)cc2)c1

Continued, molecule first:

SMILES | RP-LC retention time
Cc1ccc(S(=O)(=O)N2CCC(CCC(=O)NCc3cccc(C)c3)CC2)cc1 | 956 s
Cc1ccc(C)c(C(=O)NCc2ccc(-n3ccnc3)cc2)c1 | 630 s
O=C(COc1ccccc1)N1CCN(c2nc(CN3CCCCC3)cs2)CC1 | 636 s
CCc1nc(NCc2ccccn2)ncc1C(=O)O | 557 s
Cc1sc(NC(=O)c2cccs2)nc1-c1ccccc1 | 1070 s
Cc1ccc(Nc2c(-c3ccc(N4CCOCC4)cc3)nc3ccc(C)cn23)cc1 | 739 s
CCOc1cc(=O)n2c(c1C(=O)N1CCCCCC1)CCCCC2 | 703 s
CCc1nc2cc(-c3noc(-c4cccs4)n3)ccc2o1 | 1080 s
Cc1ccc(CNC(=O)c2cc(-c3ccncc3)cn2C)cc1C | 672 s
COCC(=O)N1CC(c2nc(-c3ccc(F)cc3)no2)C2(CCOCC2)C1 (stereo unspecified) | 731 s
CC(CN1CC(=O)NC(=O)C1)N1CC(=O)NC(=O)C1 (stereo unspecified) | 530 s
CNC(=O)[C@@H]1CN(C(=O)c2cc(C3CC3)[nH]n2)C[C@H]1c1n[nH]c(C)n1 | 577 s
COC1CCC12CCN(C(=O)c1c(C)noc1C)CC2 (stereo unspecified) | 716 s
O=C(C1CCN(c2nc3ccc(-c4cccnc4)nc3s2)CC1)N1CCCC1 | 615 s
COC(=O)c1cc(S(=O)(=O)N2CCCC2C(=O)Nc2ccc(C)cc2)cn1C (stereo unspecified) | 869 s
Cn1nccc1C(=O)Nc1c(-c2ccccc2)nc2sc(N3CCCCC3)nn12 | 678 s
O=C(Cn1nc(S(=O)(=O)c2ccccc2)ccc1=O)N1CCN(c2ccccc2F)CC1 | 870 s
O=C(Cn1nc(C(=O)N2CCCC2)c2ccccc21)Nc1cccc(Cl)c1 | 875 s
Cc1cc(C(=O)NCC23CCCC=C2NC(=O)CC3)nn1C (stereo unspecified) | 641 s
COc1ccc(-c2cc(C(=O)N3CCC(NC(=O)C4CC4)CC3)[nH]n2)cc1 | 652 s
COc1ccc(CNC(=O)N2CCC(N3CCN(Cc4ccccc4)C(=O)C3=O)CC2)cc1 | 702 s
Cc1ccc(CN2CCC(CNC(=O)Cn3ccc4c(=O)n(C)c(=O)n(C)c43)CC2)cc1 | 601 s
Cc1cc(C)n(-c2ccnc(N3CCC(C(=O)NCC4CC4)CC3)n2)n1 | 739 s

SMILES | RP-LC retention time
CCOC(=O)C1CCCN(Cc2nc3nc(C)cc(N4CCC(C)CC4)n3n2)C1 (stereo unspecified) | 652 s
COc1ccc(OC)c2sc(N(Cc3ccco3)C(=O)Cc3cccs3)nc12 | 1050 s
COCCN(Cc1ccc(C(C)C)cc1)Cc1cc(=O)n2cc(Cl)ccc2n1 | 628 s
Cc1cc2c(=O)n(CC(=O)Nc3cccc(C(C)C)c3)ccc2s1 | 904 s
CCN(CC)c1ccc(NC(=O)C2CCCN(S(=O)(=O)c3cn(C(C)C)cn3)C2)c(C)c1 (stereo unspecified) | 622 s
CCOC(=O)CCC(=O)N1CCCC(COCc2ccccc2)C1 (stereo unspecified) | 842 s
COc1ccc(C)cc1NC(=O)CN1CCN(Cc2ccccc2)C(=O)C1=O | 684 s
O=C(Cc1csc(NC(=O)C2CCCC2)n1)Nc1nc(-c2cccnc2)cs1 | 600 s
CCc1noc2nc(C)n(CC(=O)NC3CCCc4ccccc43)c(=O)c12 (stereo unspecified) | 867 s
CN(C)c1ccc(C(=O)N2CCN(C(=O)c3nnn4c3COC(c3ccc(Cl)cc3)C4)CC2)cc1 (stereo unspecified) | 935 s
Cc1cnc(C2CN(C(=O)C(C)C)C2)n1CC1CC1 | 562 s
COc1cc(C(=O)NCCc2csc(-c3ccc(Cl)cc3)n2)c([N+](=O)[O-])cc1OC | 895 s
CCC(C)NC(=O)COc1nc(C)nc2onc(-c3cccc(F)c3)c12 (stereo unspecified) | 932 s
O=C(CN1C(=O)C2CCCCN2c2ccc(C(=O)N3CCCC3)cc21)Nc1ccc2c(c1)OCCO2 (stereo unspecified) | 779 s
CC(C)c1cccc(NC(=O)Cn2nc3c(N4CCSCC4)nccn3c2=O)c1 | 930 s
CCC(=O)N1CCc2cc(N3CC(C(=O)NC(C)c4ccccc4)CC3=O)ccc21 (stereo unspecified) | 750 s
CCCN1C(=O)c2cc(S(=O)(=O)NC(C)c3ccccc3)ccc2Oc2cccnc21 (stereo unspecified) | 1070 s
Cc1ccc(C(CNC(=O)c2cc(-c3ccc4c(c3)CCCC4)on2)N2CCN(C)CC2)o1 (stereo unspecified) | 838 s
Cc1nc(N2CCN(C(=O)COc3ccc(Cl)cc3Cl)CC2)cc(-n2cccn2)n1 | 894 s
COc1ccc(C2(C(=O)N3CC(n4ccnc4C(C)C)C3)CC2)cc1 | 626 s
C=CCNC(=O)c1nnc2n(c1=O)CCN2c1ccc(F)cc1 | 622 s
CN(C)c1ccc(C(=O)NCc2nn(C)c3ccccc23)cc1 | 778 s
Cc1c(CN2CCSCC2)nnn1-c1ccccc1 | 583 s
